Laboratory results taken from ChEMBL document CHEMBL1201862, “PubChem BioAssay data set” (2004).
Activity calls are given as the source filed them.

Assays:
Cytochrome P450 2C9 = Cytochrome P450 2C9 (Homo sapiens, UniProt P11712)
[1] = HEp-2 cell cytotoxicity, dose response, cytotoxicity control for RSV inhibitor project, HTS (AID 2410); format: functional; conditions: human respiratory syncytial virus
[2] = inhibitors of firefly luciferase expression or activity, dose response, H4 neuroglioma cells, luminescence (AID 1990); format: functional, cell-based
[3] = inhibitors of SNCA 5'UTR-driven reporter translation, confirmation, H4 neuroglioma cells, luminescence (AID 1988); format: functional, cell-based
[4] = Luminescence Cell-Based Dose Response HTS to Identify Inhibitors of 5'UTR Stem-Loop Driven Prion Protein mRNA Translation in H4 Neuroglioblastoma Cells. [Related pubchem assays: 1827 (Project Summary), 1813 (Primary HTS)]; format: functional
[5] = molecular target: T1, Rac GTPase-activating protein 1 (Homo sapiens, UniProt Q9H0H5); experiment: MgcRacGAP GTPase-activating activity inhibitors, confirmation, biochemical, ADP Hunter fluorescence, primary and confirmatory (AID 624330); format: functional
T1 sequence (Q9H0H5 whole entry): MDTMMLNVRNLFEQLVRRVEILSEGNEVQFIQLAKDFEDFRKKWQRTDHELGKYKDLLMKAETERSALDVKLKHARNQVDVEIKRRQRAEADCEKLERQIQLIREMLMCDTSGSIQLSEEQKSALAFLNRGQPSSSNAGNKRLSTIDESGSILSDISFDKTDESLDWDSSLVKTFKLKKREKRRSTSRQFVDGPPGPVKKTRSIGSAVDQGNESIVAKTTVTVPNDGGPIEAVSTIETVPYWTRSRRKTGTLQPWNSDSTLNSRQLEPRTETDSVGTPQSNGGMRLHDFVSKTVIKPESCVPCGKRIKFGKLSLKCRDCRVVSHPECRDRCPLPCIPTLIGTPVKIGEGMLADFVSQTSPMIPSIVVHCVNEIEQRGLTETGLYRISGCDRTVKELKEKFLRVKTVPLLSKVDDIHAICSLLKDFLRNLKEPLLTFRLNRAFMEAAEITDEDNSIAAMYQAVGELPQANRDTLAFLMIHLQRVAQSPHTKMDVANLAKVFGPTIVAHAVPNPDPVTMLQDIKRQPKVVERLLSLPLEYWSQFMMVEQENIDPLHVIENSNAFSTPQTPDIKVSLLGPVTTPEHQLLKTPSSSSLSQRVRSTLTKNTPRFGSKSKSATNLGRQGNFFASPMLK

[6] = molecular target: T2, Heat shock factor protein 1 (Mus musculus, UniProt P38532); experiment: inhibition of MG132-induced HSE-luciferase signal, confirmation, cell-based, NIH3T3, luminescence, dose retest (AID 2382); format: functional;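 note: NIH3T3 fibroblasts with HSF1-driven luciferase reporter stressed by proteasome inhibitor MG132; luminescence from HSF1-driven luciferase expression after 8 hours of MG132 stress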
T2 sequence (P38532 whole entry): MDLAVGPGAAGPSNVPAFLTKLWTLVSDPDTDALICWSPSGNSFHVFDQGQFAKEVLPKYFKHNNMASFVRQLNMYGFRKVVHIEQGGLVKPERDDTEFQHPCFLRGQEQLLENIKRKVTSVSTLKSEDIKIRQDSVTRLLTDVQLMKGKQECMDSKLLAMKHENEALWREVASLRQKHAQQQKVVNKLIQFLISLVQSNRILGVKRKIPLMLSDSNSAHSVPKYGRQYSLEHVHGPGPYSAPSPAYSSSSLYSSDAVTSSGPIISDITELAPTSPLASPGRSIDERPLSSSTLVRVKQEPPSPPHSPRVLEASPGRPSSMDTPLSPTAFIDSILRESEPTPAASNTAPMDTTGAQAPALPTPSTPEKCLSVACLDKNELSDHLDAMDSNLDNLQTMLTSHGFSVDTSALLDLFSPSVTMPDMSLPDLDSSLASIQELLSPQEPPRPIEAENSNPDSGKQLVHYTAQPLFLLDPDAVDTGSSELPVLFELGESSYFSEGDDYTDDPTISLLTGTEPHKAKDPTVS

INS1 = experiment: beta cell apoptosis inhibitors, cytokine rescue, dose response, luminescence, retest (AID 449756); format: functional, cell-based; conditions: Rattus norvegicus;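 note: cell death triggered by IL-1 beta plus TNF-alpha plus IFN-gamma mixture; protective hits raise ATP signal compared with cytokine alone wells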
[7] = growth suppression of PTEN-null colon cells, dose response, cell-based, HCT116 PTEN knockout (AID 1047); format: functional;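 note: HCT116 colon tumor cells with PTEN knocked out; cells exposed to compound for 60 hours before readout; potency for loss of cell viability measured by luminescence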
[8] = growth suppression of beta-catenin-knockout colon cells, dose response, cell-based, HCT116, human colon tumor (AID 1045); format: functional;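 note: HCT116 colon tumor cells with beta catenin knocked out; cells exposed to compound for 60 hours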
[9] = NIH-3T3 fibroblast cytotoxicity, dose response, cytotoxicity control, cell-based, fluorescence, Alamar Blue, secondary assay (AID 2327); format: functional;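 note: NIH-3T3 mouse fibroblasts cultured with fluconazole at 8 µg/mL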
[10] = Luminescence Cell-Based Dose Retest to Confirm Inhibitors of Cancer Stem Cells. [Related pubchem assays (depositor defined):AID2717, AID2721]; format: functional; conditions: Homo sapiens
[11] = inhibitors of intracellular T. cruzi replication, confirmation, NIH3T3 host cells, beta-gal luminescence (AID 2044); format: functional, cell-based;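 note: intracellular parasites grown in NIH/3T3 mouse fibroblasts as host cells; luminescent beta-galactosidase reporter signal from transgenic T. cruzi replicating inside host cells; inhibitors lower the luminescence signal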
[12] = cytotoxicity toward NIH3T3 fibroblasts, dose response, counter-screen, cell-based, ATP luminescence, mouse fibroblasts (AID 2010); format: functional;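 note: cells exposed to compound for about 90 hours before reading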

Chain of Cytochrome P450 2C9 (P11712 whole entry): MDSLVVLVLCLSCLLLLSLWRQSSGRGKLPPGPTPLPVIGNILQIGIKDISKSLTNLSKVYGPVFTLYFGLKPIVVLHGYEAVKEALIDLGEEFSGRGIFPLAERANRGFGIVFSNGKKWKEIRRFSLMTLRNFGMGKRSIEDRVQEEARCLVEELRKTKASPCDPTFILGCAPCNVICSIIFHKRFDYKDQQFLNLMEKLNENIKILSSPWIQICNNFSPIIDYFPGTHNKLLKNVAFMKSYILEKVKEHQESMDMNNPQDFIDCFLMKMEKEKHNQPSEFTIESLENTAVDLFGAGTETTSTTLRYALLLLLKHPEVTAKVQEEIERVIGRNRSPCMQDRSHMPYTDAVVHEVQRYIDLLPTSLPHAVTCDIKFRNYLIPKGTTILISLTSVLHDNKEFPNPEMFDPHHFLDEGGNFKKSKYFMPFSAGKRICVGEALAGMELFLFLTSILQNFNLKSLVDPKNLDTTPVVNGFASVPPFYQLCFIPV

## Oc1c([C@H](Nc2ccccn2)c2ccccc2)ccc2cccnc12
Cytochrome P450 2C9
  AC50: 6.31 µM (inconclusive)

## CCOc1cc(C(=O)NCC(C)(C)CNC(=O)c2cc(OCC)c(OCC)c(OCC)c2)cc(OCC)c1OCC
[1]
  CC50: 27.7 µM (active)

## CCOc1ccc(C(=O)C[n+]2ccccc2C)cc1
[2]
  EC50: > 120 µM (not active)
[3]
  EC50: > 120 µM (not active)

## Cc1ccccc1N1C(=O)C(Oc2ccc(Cl)cc2)C1CNCCCOC(C)C (centres undefined)
[2]
  EC50: 27 µM (active)
[4]
  EC50: 119 µM (active)
[3]
  EC50: > 120 µM (not active)

## Oc1ccc(C=NNc2nc3ccccc3s2)c(O)c1
[5]
  IC50: 88.4 µM (active)

## C=CCn1c(S)nnc1-c1cc2cccc(OC)c2o1
[1]
  CC50: 21.4 µM (active)

## COc1ccc(CN2CCN(Cc3c[nH]c4ccccc34)CC2)c(OC)c1
[5]
  IC50: 104 µM (active)

## CCCCc1nc2ccccc2c(NC(=O)CN2CCN(C)CC2)c1CCC
[5]
  IC50: 50.3 µM (active)

## CCOC(=O)c1c(NC(=O)C2=C(C)N=C(S)NC2c2ccc(F)cc2)sc(C)c1C (centres undefined)
[2]
  EC50: > 120 µM (not active)
[4]
  EC50: > 120 µM (not active)
[3]
  EC50: > 120 µM (not active)

## O=C(N/N=C/c1ccc(O)cc1)c1ccc(COc2cc(Cl)ccc2Cl)o1
Cytochrome P450 2C9
  AC50: 6.31 µM (inconclusive)

## NC(=O)COc1ccc(-n2cnnn2)cc1
[6]
  EC50: > 195 µM (not active)

## COc1ccc(C2/C=C\CN(C(=O)Nc3ccc(C(F)(F)F)cc3)CC(=O)N2Cc2ccc(F)cc2)cc1 (centres undefined)
[2]
  EC50: 10.2 µM (active)
[4]
  EC50: > 120 µM (not active)
[3]
  EC50: 10.8 µM (active)
INS1
  AC50: 6.64 µM (active)

## COc1ccc2cc(Br)ccc2c1CC(=O)NC1CC(C)(C)NC(C)(C)C1
[7]
  EC50: 20.4 µM (active)
[8]
  EC50: 20.8 µM (active)

## CC(=O)NC(=S)Nc1ccc(-c2nc3ccc(C)cc3s2)cc1
[7]
  EC50: 50 µM (active)
[8]
  EC50: 112 µM (active)

## O=c1c2ccccc2nc(CSc2nnnn2-c2ccccc2)n1-c1ccccc1
[7]
  EC50: 18.1 µM (active)
[8]
  EC50: 17.6 µM (active)

## Cc1nc(C(=O)O)nn1-c1ccc([N+](=O)[O-])cc1
[2]
  EC50: > 120 µM (not active)
[4]
  EC50: 118 µM (active)
[3]
  EC50: > 120 µM (not active)

## Cc1cccc(NC(=O)Nc2cccc(C#N)c2)n1
[1]
  CC50: > 50 µM (active)

## COc1ccc(Br)cc1CN1CCN(C(=O)c2ccc(F)cc2)CC1
[5]
  IC50: 212 µM (active)

## C/C(=N\Nc1ccc([N+](=O)[O-])cc1)c1ccc(N)cc1
[5]
  IC50: 109 µM (active)

## Cn1cccc1C(=O)NC(=O)COC(=O)C12CC3CC(CC(O)(C3)C1)C2
[6]
  EC50: 0.372 µM (active)

## FC(F)(F)c1cccc(N2CCC(/N=C/N3CCCCCC3)=N2)c1
[5]
  IC50: 56.4 µM (active)

## Cc1ccc(N2NC3(CCN(C(N)=O)CC3)NC2=O)cc1
[9]
  EC50: 28.6 µM (active)

## CC(=O)c1nn(-c2cccc(Br)c2)cc1C(=O)c1ccc(C)cc1
[9]
  EC50: > 150 µM (inactive)

## COc1cc(NC(=O)CN(C)S(=O)(=O)c2ccc3c(c2)CC(C)N3C(C)=O)cc(OC)c1 (centres undefined)
[6]
  EC50: > 195 µM (not active)

## CCOC(=S)SCC(=O)Nc1nc(-c2ccc(Br)cc2)cs1
[2]
  EC50: 8.41 µM (active)
[4]
  EC50: 8.99 µM (active)
[3]
  EC50: 5.28 µM (active)
[10]
  AC50: 0.722 µM (active)

## CCOC(=O)Cn1nc(C)c(NC(=O)COc2ccc([N+](=O)[O-])cc2)c1C
[6]
  EC50: > 195 µM (not active)

## Cc1cc(N)n(-c2ccc3ccccc3c2)n1
Cytochrome P450 2C9
  AC50: 35.5 µM (inconclusive)

## Nc1ccc(S(=O)(=O)Nc2cnc3ccccc3n2)cc1 [SULFAQUINOXALINE]
Cytochrome P450 2C9
  AC50: 3.98 µM (inconclusive)

## COc1ccccc1NS(=O)(=O)c1ccc(C)c(C(N)=O)c1
[6]
  EC50: > 195 µM (not active)

## COc1ccc(O)c(C2=Nc3ccccc3N=C(c3cccs3)C2)c1
[6]
  EC50: > 195 µM (not active)

## C=CCn1c(SCC(C)=O)nc2scc(-c3ccc(C)o3)c2c1=O
[1]
  CC50: 13.5 µM (active)

## CCc1ccc2c(c1)c1nnc(NN)nc1n2CC
[7]
  EC50: 30.8 µM (active)
[8]
  EC50: 31.1 µM (active)

## Cc1ccc(C)c(OCC(O)CN2CCC(CN3C(=O)c4cccc5cccc(c45)C3=O)CC2)c1 (centres undefined)
[7]
  EC50: 4.42 µM (active)
[8]
  EC50: 4.8 µM (active)

## CC(=O)O/N=C/c1c(NCc2ccccc2)nc2c(C)cccn2c1=O
[1]
  CC50: 31.1 µM (active)

## CN(C)S(=O)(=O)c1ccc(-c2csnn2)s1
[6]
  EC50: > 195 µM (not active)

## Oc1ccc(NCc2ccccc2OCc2ccccc2F)cc1
[5]
  IC50: 71.4 µM (active)

## Oc1ccc(Cl)cc1-c1cc(C(F)(F)C(F)F)nc(-c2ccccc2)n1
[2]
  EC50: > 120 µM (not active)
[4]
  EC50: > 120 µM (not active)
[3]
  EC50: > 120 µM (not active)

## COc1cc(CNc2ncc(-c3ccc(Br)cc3)n2C)cc(OC)c1O
[5]
  IC50: 52 µM (active)

## COc1cc(/C=N/NC(=O)c2ccc3c(c2)OCO3)ccc1O
[5]
  IC50: 28.5 µM (active)

## CCc1ccc(-c2cc(C(=O)NCCCn3ccnc3)c3ccccc3n2)s1
[1]
  CC50: 28.4 µM (active)

## O=C(O)c1cccc(NC(=O)c2ccccc2NC(=O)c2ccccc2F)c1
[6]
  EC50: > 195 µM (not active)

## COc1ccc(Cl)cc1N(CC(=O)N1CCN(Cc2ccccc2)CC1)S(C)(=O)=O
[6]
  EC50: > 195 µM (not active)

## CCc1ccc(/C(C)=N\Nc2ccc([N+](=O)[O-])cc2)cc1
[9]
  EC50: > 160 µM (inactive)

## CC1=CC(C)(C)Nc2ccccc21
[2]
  EC50: > 120 µM (not active)
[4]
  EC50: > 120 µM (not active)
[3]
  EC50: > 120 µM (not active)
[11]
  EC50: 4.5 µM (active)
[12]
  EC50: > 60 µM (not active)

## COc1ccc2nc(COC(=O)c3cccs3)c(C(C)=O)[n+]([O-])c2c1
[6]
  EC50: > 195 µM (not active)

## COc1cc(C=O)ccc1OCCCOc1ccccc1C(=O)O
Cytochrome P450 2C9
  AC50: 17.8 µM (inconclusive)

## Cc1c2c(nc3ccccc13)CCC(C)C2 (centres undefined)
[1]
  CC50: > 50 µM (active)

## COc1cc(CCCN2CCNC[C@@H]2Cc2ccc(O)cc2)cc(OC)c1OC
[6]
  EC50: > 195 µM (not active)

## N#CC1=C(N)Oc2cc(O)ccc2C1C1CCCCC1 (centres undefined)
[7]
  EC50: 12.1 µM (active)
[8]
  EC50: 13.2 µM (active)

## CN(C)c1ccc(/C=N/N2CCN(Cc3ccccc3Cl)CC2)cc1
[5]
  IC50: 69.6 µM (active)

## OC(COc1ccc2cc(Br)ccc2c1)CN1CCCC1 (centres undefined)
[11]
  EC50: 3.4 µM (active)
[7]
  EC50: 17 µM (active)
[12]
  EC50: 11.5 µM (active)
[8]
  EC50: 15.6 µM (active)
